According to paper PMC7508583, “Discovery and Preclinical Development of Antigiardiasis Fumagillol Derivatives” (Antimicrobial Agents and Chemotherapy, 2020):
In brackets after ≈: the same amount, converted by molar mass. Read-outs that look alike come from different tables or passages of the source.

How the values were obtained:
[1] = test system: Caco-2 cell monolayers; test: in vitro; details: human, Caco-2, 120 min, 10 µM, pH 7.4
Text: Next, we tested the permeation of the compounds across polarized Caco-2 cell monolayers, a method that is widely used as an in vitro model of the human small intestinal mucosa to predict the absorption of orally administered drugs ([63], [64]). With noninvasive intestinal infections, there is no need to establish a high plasma concentration. Since a high rate of uptake through the host gut lining could increase compound toxicity, we sought to reduce gut absorption. […] Both apical-to-basal and basal-to-apical permeation values were measured to obtain information about efflux. […] The efflux machinery is currently unknown.
Passage 36 Caco-2 cells were used. The cells were cultured in Dulbecco’s modified Eagle’s medium (DMEM; 5 ml of 100 mM sodium pyruvate, 5 ml of 100× nonessential amino acids, 5 ml of penicillin-streptomycin, and 100 ml of heat-inactivated fetal bovine serum added to 385 ml of DMEM aseptically and mixed thoroughly), pH 7.4, at 37°C in 5% CO2. DMEM (250 μl) was added to the basal compartment of 96-well multiscreen Caco-2 cell plate consisting of high-pore-density polycarbonate (Millipore) with a 0.4-μm pore size and a 0.11-cm^2 active membrane area. The cells were seeded at a density of 12,000 cells/well (0.16 × 10^6 cells/ml) in the apical wells, with one well containing only medium as blank. The Caco-2 cell plate was placed in a CO2 incubator at 37°C for cell proliferation. On the day of assay, the medium was removed, washed twice with Hanks balanced salt solution (HBSS) buffer supplemented with 2% bovine serum albumin (BSA), pH 7.4, and incubated with the HBSS buffer for 30 min at 37°C. Wells with transepithelial electrical resistance values of greater than 230 Ω · cm^2 were selected for the experiments. […] The assay was performed in duplicate.
Seventy-five microliters of the test compounds was added to the apical wells, and 250 μl of HBSS buffer with 2% BSA was added to the basal wells. The plate was incubated in a CO2 incubator with shaking on a plate shaker at 150 rpm for 120 min, after which 25 μl of the basal samples was collected and processed.
Two hundred fifty microliters of test compounds was added to the basal wells, and 75 μl of HBSS buffer with 2% BSA was added to the apical wells. The plate was incubated in a CO2 incubator with shaking on a plate shaker at 150 rpm for 120 min, after which 25 μl of the apical samples was collected and processed.
For sample processing, a single-point calibration curve in HBSS buffer with 2% BSA was used. Donor samples were diluted 1:1 with HBSS containing 2% BSA, and receiver samples were diluted with 1:1 HBSS buffer and precipitated with 200 μl of acetonitrile containing internal standard. The samples were vortexed for 5 min at 1,000 rpm and centrifuged at 4,000 rpm for 10 min. One hundred microliters of the supernatant was diluted with 200 μl of water and analyzed by LC-MS/MS (with a Shimadzu ultrafast liquid chromatograph and an API 4000 LC-MS/MS system).
The apparent permeation coefficients (Papp) were calculated as Papp = (dQ/dT) × (1/C0) × (1/A), where dQ is the amount permeated to the receiver compartment of the 96-well plate, dT is the time of compound incubation, C0 is the initial compound concentration in the donor compartment of the well, and A is the surface area of the monolayer.

[2] = test system: G. lamblia GS trophozoites; test: Mouse giardiasis model efficacy; format: in vivo, Giardia lamblia; details: for ED50: Giardia duodenalis, 96 h; for EC50, 4-day single-daily-dose treatment regimen: Fig. 5
Experimental: The C57BL/6J mice were infected with G. lamblia GS trophozoites, treated for 4 days, and euthanized as described in Materials and Methods.
Compound efficacy was evaluated in the mature mouse giardiasis model reported previously ([18], [66]). Fifteen 4-week-old C57BL/6J female mice (The Jackson Laboratory, Bar Harbor, ME) were infected with G. lamblia GS or H7 trophozoites. For each experiment, the trophozoites (500,000 trophozoites suspended in 200 μl of TYI-S-33 medium) were administered by oral gavage to 15 mice. […] The remaining 5 untreated mice served as controls. The compounds were administered by oral gavage in 200 μl of TYI-S-33 medium supplemented with 0.5% DMSO. All mice were euthanized on day 7. The University of Maryland College Park IACUC approved the animal studies.
Two inches of the upper small intestine were dissected and washed with 2 ml of medium supplemented with antibiotics to produce axenized cultures (1 mg/ml each piperacillin and moxalactam and 10 μg/ml each vancomycin and polymyxin B, which is a modified mixture compared with that used earlier). The harvested small intestines were opened longitudinally and minced in a petri dish containing 10 ml of ice-chilled medium. The plates were placed on ice for 30 min to allow the trophozoites to detach from the intestine, and the entire content of each petri dish was transferred into a 15-ml glass tube, the volume was adjusted to 14 ml by adding the antibiotic-containing medium, and the tube was vigorously vortexed to separate the trophozoites from the intestine debris. For the following 2 h, the tubes were kept at 37°C to allow trophozoite attachment to the wall of the glass tube, after which the medium containing the intestine debris was decanted and replaced by fresh medium. The tubes were kept at 37°C for another 15 min, followed by a second medium replacement. The tubes were kept at 37°C for 6 days for proliferation. Trophozoite growth was determined once daily by monitoring the ATP content using the ATPlite reagent.
The proliferation measurements were used to calculate growth curves and the trophozoite load of drug-treated mice compared with that of untreated mice. The trophozoite load was quantified by calculating the initial population from the growth curves and fitting the luminescence or the trophozoite counting data to the Malthusian model of exponential growth, Nt = N0e^rt, where Nt is the signal of the population at time t, r is the growth rate, and N0 is the signal of the initial population at the end of treatment. The percentage of the load relative to the N0 for untreated mouse samples was determined. […] The curve was fit with a variable slope using GraphPad Prism (version 8.2.1) software (GraphPad Software Inc., La Jolla, CA).

[3] = test system: G. lamblia GS trophozoites; set-up: method as in PMID 25267663; details: proliferation assay; cited from earlier work
[4] = test system: G. lamblia WB trophozoites; set-up: method as in PMID 25267663; details: proliferation assay; cited from earlier work
[5] = set-up: method as in earlier work; details: degraded from 98% purity; Sanofi; cited from earlier work
[6] = test system: CHO-K1 (CHO) cells; details: cited from earlier work
[7] = 13.7 mg/kg, mouse giardiasis model

SMILES: COC1C(OC(=O)NC(=O)CN2CCOCC2)CCC2(CO2)C1C1(C)OC1CC=C(C)C (centres unmarked) [Compound 3]
- Caco-2 cell permeation as % of the permeation of fumagillin [1]: 62%

SMILES: CO[C@@H]1[C@H](OC(=O)Nc2ccc(C(=O)O)cc2)CC[C@]2(CO2)[C@H]1[C@@]1(C)O[C@@H]1CC=C(C)C [Compound 9, 4-(((((3R,4S,5S,6R)-5-methoxy-4-((2R,3R)-2-methyl-3-(3-methylbut-2-en-1-yl)oxiran-2-yl)-1-oxaspiro[2.5]octan-6-yl)oxy)carbonyl)amino)benzoic acid]
- Caco-2 cell permeation as % of the permeation of fumagillin [1]: 53%
- fully curative dose (100% effective dose, ED100) ([2]; C57BL/6J mice infected with G. lamblia GS, oral, once daily for 4 days): 6.6 mg/kg
- ED50 ([2]; C57BL/6J mice infected with G. lamblia GS, oral, once daily for 4 days, read-out: ED50): 0.064 mg/kg
- EC50, 4-day single-daily-dose treatment regimen ([2]; mouse giardiasis model): 0.064 mg/kg/day

SMILES: CO[C@@H]1[C@H](OC(=O)/C=C/C=C/C=C/C=C/C(=O)O)CC[C@]2(CO2)[C@H]1[C@@]1(C)O[C@@H]1CC=C(C)C [Fumagillin, reference compound]
- cure of mice [2, 7]: none of the mice were cured
- trophozoite load remaining compared with untreated control mice [2, 7]: 7%
- ED50 ([2]; po): 0.247 mg/kg
- EC50, 4-day single-daily-dose treatment regimen ([2]; mouse giardiasis model): 0.247 mg/kg/day
- MLC, GS strain [3]: 0.26 µM (≈ 0.119 µg/mL)
- MLC, WB strain [4]: 0.7 µM (≈ 0.321 µg/mL)
- purity after storage at 40°C for 2 weeks at ambient humidity [5]: 85%
- IC50 ([6]; read-out: IC50, cytotoxicity toward mammalian CHO cells): > 100 µM

SMILES: Cc1ncc([N+](=O)[O-])n1CCO [Metronidazole, reference compound]
- IC50 ([6]; read-out: IC50 CHO, cytotoxicity): 17.3 µM
